system: KRas G12D-mediated phosphorylation of ERK; assay: Inhibition of KRas G12D-mediated phosphorylation of ERK in AGS cells; type: cell-based; conditions: Homo sapiens; AGS cells expressing G12D, 3 hours, phospho-ERK normalized to GAPDH
Summary of the method: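 In-cell Western: p-ERK Thr202/Tyr204 signal over GAPDH, as % of DMSO control, with IC50 from a 4-parameter curve. AGS cells seeded 40,000/well for 12-14 h, exposed to compound 3 h at 0.5% DMSO final, then formaldehyde-fixed and methanol-permeabilized.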

SMILES	IC50 [µM]
CN1CCC[C@H]1COc1nc(N2CC3CCC(C2)N3)c2cnc(-c3c(Cl)c(O)cc4ccccc34)c(F)c2n1 [Example 337, 4-(4-(3,8-diazabicyclo[3.2.1]octan-3-yl)-8-fluoro-2-(((S)-1-methylpyrrolidin-2-yl)methoxy)pyrido[4,3-d]pyrimidin-7-yl)-3-chloronaphthalen-2-ol]	1.62
N#CC[C@@H]1C[C@@H]2CN(c3nc(OCC45CCCN4CCC5)nc4c(F)c(-c5cc(O)cc6ccccc56)ncc34)C[C@H]1N2 [Example 338, 2-((1R,5S,6S)-3-(8-fluoro-7-(3-hydroxynaphthalen-1-yl)-2-((tetrahydro-1H-pyrrolizin-7a(5H)-yl)methoxy)pyrido[4,3-d]pyrimidin-4-yl)-3,8-diazabicyclo[3.2.1]octan-6-yl)acetonitrile]	> 16.7
Oc1ccc(OC(F)(F)F)c(-c2ncc3c(N4C[C@H]5CC[C@@H](C4)N5)nc(OCC45CCCN4CCC5)nc3c2F)c1 [Example 341, 3-(4-((1R,5S)-3,8-diazabicyclo[3.2.1]octan-3-yl)-8-fluoro-2-((tetrahydro-1H-pyrrolizin-7a(5H)-yl)methoxy)pyrido[4,3-d]pyrimidin-7-yl)-4-(trifluoromethoxy)phenol]	0.837
Fc1c(-c2c(C(F)(F)F)ccc3[nH]ncc23)ncc2c(N3C[C@H]4CC[C@@H](C3)N4)nc(OCC34CCCN3CCC4)nc12 [Example 344, 4-((1R,5S)-3,8-diazabicyclo[3.2.1]octan-3-yl)-8-fluoro-2-((tetrahydro-1H-pyrrolizin-7a(5H)-yl)methoxy)-7-(5-(trifluoromethyl)-1H-indazol-4-yl)pyrido[4,3-d]pyrimidine]	8.07
Fc1c(-c2cccc3cccc(OC(F)(F)F)c23)ncc2c(N3C[C@H]4CC[C@@H](C3)N4)nc(OCC34CCCN3CCC4)nc12 [Example 345, 4-((1R,5S)-3,8-diazabicyclo[3.2.1]octan-3-yl)-8-fluoro-2-((tetrahydro-1H-pyrrolizin-7a(5H)-yl)methoxy)-7-(8-(trifluoromethoxy)naphthalen-1-yl)pyrido[4,3-d]pyrimidine]	1.47
Fc1c(-c2cccc3cccc(OC(F)F)c23)ncc2c(N3C[C@H]4CC[C@@H](C3)N4)nc(OCC34CCCN3CCC4)nc12 [Example 346, 4-((1R,5S)-3,8-diazabicyclo[3.2.1]octan-3-yl)-7-(8-(difluoromethoxy)naphthalen-1-yl)-8-fluoro-2-((tetrahydro-1H-pyrrolizin-7a(5H)-yl)methoxy)pyrido[4,3-d]pyrimidine]	1.35
CC(C)c1ccccc1-c1ncc2c(N3CC4CCC(C3)N4)nc(OCC34CCCN3C[C@H](F)C4)nc2c1F (stereo partly drawn) [Example 348, 4-((1R,5S)-3,8-diazabicyclo[3.2.1]octan-3-yl)-8-fluoro-2-((2-fluorotetrahydro-1H-pyrrolizin-7a(5H)-yl)methoxy)-7-(2-isopropylphenyl)pyrido[4,3-d]pyrimidine]	0.779
CO[C@H]1CN[C@H](COc2nc(N3C[C@H]4CC[C@@H](C3)N4)c3cnc(-c4cccc5cccc(Cl)c45)c(F)c3n2)C1 [Example 351]	> 16.7
CN1CC[C@@H](COc2nc(N3C[C@H]4CC[C@@H](C3)N4)c3cnc(-c4cccc5cccc(Cl)c45)c(F)c3n2)C1 [Example 356, 4-((1R,5S)-3,8-diazabicyclo[3.2.1]octan-3-yl)-7-(8-chloronaphthalen-1-yl)-8-fluoro-2-(((R)-1-methylpyrrolidin-3-yl)methoxy)pyrido[4,3-d]pyrimidine]	11.9
COc1nc(N2C[C@H]3CC[C@@H](C2)N3)c2cnc(-c3cc(O)cc4cccc(Cl)c34)c(F)c2n1 [Example 360, 4-(4-((1R,5S)-3,8-diazabicyclo[3.2.1]octan-3-yl)-8-fluoro-2-methoxypyrido[4,3-d]pyrimidin-7-yl)-5-chloronaphthalen-2-ol]	8.35
Oc1cc(-c2ncc3c(N4C[C@H]5CC[C@@H](C4)N5)nc(OCC45CCCN4CCC5)nc3c2F)c2c(F)cccc2c1 [Example 367, 4-(4-((1R,5S)-3,8-diazabicyclo[3.2.1]octan-3-yl)-8-fluoro-2-((tetrahydro-1H-pyrrolizin-7a(5H)-yl)methoxy)pyrido[4,3-d]pyrimidin-7-yl)-5-fluoronaphthalen-2-ol tris(2,2,2-trifluoroacetate)]	0.112
Fc1c(-c2ccccc2C(F)(F)F)ncc2c(N3C[C@H]4CC[C@@H](C3)N4)nc(OCC34CCCN3CCC4)nc12 [Example 370, 4-((1R,5S)-3,8-diazabicyclo[3.2.1]octan-3-yl)-8-fluoro-2-((tetrahydro-1H-pyrrolizin-7a(5H)-yl)methoxy)-7-(2-(trifluoromethyl)phenyl)pyrido[4,3-d]pyrimidine]	10.7
Oc1ccc(C(F)(F)F)c(-c2ncc3c(N4C[C@H]5CC[C@@H](C4)N5)nc(OCC45CCCN4CCC5)nc3c2F)c1 [Example 373, 3-(4-((1R,5S)-3,8-diazabicyclo[3.2.1]octan-3-yl)-8-fluoro-2-((tetrahydro-1H-pyrrolizin-7a(5H)-yl)methoxy)pyrido[4,3-d]pyrimidin-7-yl)-4-(trifluoromethyl)phenol]	> 16.7
Oc1cc(-c2ncc3c(N4C[C@H]5CC[C@@H](C4)N5)nc(OCCC(F)(F)F)nc3c2F)c2c(Cl)cccc2c1 [Example 393, 4-(4-((1R,5S)-3,8-diazabicyclo[3.2.1]octan-3-yl)-8-fluoro-2-(3,3,3-trifluoropropoxy)pyrido[4,3-d]pyrimidin-7-yl)-5-chloronaphthalen-2-ol]	7.58
O[C@@H]1C[C@@H]2CN(c3nc(OC[C@@]45CCCN4C[C@H](F)C5)nc4c(F)c(-c5cccc6cccc(Cl)c56)ncc34)C[C@H]1N2 [Example 395, (1R,5R,6R)-3-(7-(8-chloronaphthalen-1-yl)-8-fluoro-2-((2-fluorotetrahydro-1H-pyrrolizin-7a(5H)-yl)methoxy)pyrido[4,3-d]pyrimidin-4-yl)-3,8-diazabicyclo[3.2.1]octan-6-ol]	1.09
Fc1c(-c2cccc3cccc(Cl)c23)ncc2c(N3CC4CC(F)C(C3)N4)nc(OC[C@@]34CCCN3C[C@H](F)C4)nc12 (stereo partly drawn) [Example 396, 7-(8-chloronaphthalen-1-yl)-8-fluoro-4-(6-fluoro-3,8-diazabicyclo[3.2.1]octan-3-yl)-2-((2-fluorotetrahydro-1H-pyrrolizin-7a(5H)-yl)methoxy)pyrido[4,3-d]pyrimidine]	8.17
CO[C@@H]1C[C@@H]2CN(c3nc(OC[C@@]45CCCN4C[C@H](F)C5)nc4c(F)c(-c5cccc6cccc(Cl)c56)ncc34)C[C@H]1N2 [Example 397, 7-(8-chloronaphthalen-1-yl)-8-fluoro-2-((2-fluorotetrahydro-1H-pyrrolizin-7a(5H)-yl)methoxy)-4-((1R,5R,6R)-6-methoxy-3,8-diazabicyclo[3.2.1]octan-3-yl)pyrido[4,3-d]pyrimidine]	> 16.7
Oc1cc(-c2ncc3c(N4C[C@H]5CC[C@@H](C4)N5)nc(OCC45CCCN4C(CF)CC5)nc3c2F)c2c(Cl)cccc2c1 (stereo partly drawn) [Example 400, 4-(4-((1R,5S)-3,8-diazabicyclo[3.2.1]octan-3-yl)-8-fluoro-2-((3-(fluoromethyl)tetrahydro-1H-pyrrolizin-7a(5H)-yl)methoxy)pyrido[4,3-d]pyrimidin-7-yl)-5-chloronaphthalen-2-ol]	0.261
